Data published in PubChem BioAssay AID330 (DTP/NCI, 2004).
Values joined by “and” are separate entries in the source; they are usually repeats but may differ in a detail not shown here. Equal entries are not always repeated. Toxic doses and inconclusive results are not listed.

Test system: P388 leukemia ip, CD2F1 mice, survival T/C
Experiment: NCI In Vivo Anticancer Drug Screen. Data for tumor model P388 Leukemia (intraperitoneal) in CD2F1 (CDF1) mice
Settings: endpoint: median survival time, higher = longer survival
Summary of the method: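 Mice carrying the transplanted tumor received test compound or vehicle. Survival was recorded in each group, and the value is the treated-group measurement divided by that of the vehicle-treated control group.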

[1] = dose: 50.0 mg/kg/injection, schedule: Q01DX009 (ip), vehicle: saline with Tween-80
[2] = dose: 50.0 mg/kg/injection, schedule: Q01DX009 (ip), vehicle: saline
[3] = dose: 100.0 mg/kg/injection, schedule: Q01DX009 (ip), vehicle: saline
[4] = dose: 100.0 mg/kg/injection, schedule: Q01DX009 (ip), vehicle: saline with Tween-80
[5] = dose: 200.0 mg/kg/injection, schedule: Q01DX009 (ip), vehicle: saline with Tween-80
[6] = dose: 100.0 mg/kg/injection, schedule: Q01DX009 (ip), vehicle: Klucel (hydroxypropylcellulose) (HPC)
[7] = dose: 200.0 mg/kg/injection, schedule: Q01DX009 (ip), vehicle: Klucel (hydroxypropylcellulose) (HPC)
[8] = dose: 400.0 mg/kg/injection, schedule: Q01DX009 (ip), vehicle: Klucel (hydroxypropylcellulose) (HPC)
[9] = dose: 100.0 mg/kg/injection, schedule: Q04DX003 (ip), vehicle: saline with Tween-80
[10] = dose: 100.0 mg/kg/injection, schedule: Q04DX003 (ip), vehicle: saline
[11] = dose: 200.0 mg/kg/injection, schedule: Q04DX003 (ip), vehicle: saline

## Nc1nc2ncc(CNc3ccc(C(=O)NC(CCC(=O)O)C(=O)O)cc3)nc2c(=O)[nH]1 (configuration not stated)
dose: 6.25 mg/kg/injection, schedule: Q01DX009 (ip), vehicle: saline
  T/C: 103 % of control
dose: 12.5 mg/kg/injection, schedule: Q01DX009 (ip), vehicle: saline
  T/C: 99 % of control and 98 % of control
dose: 25.0 mg/kg/injection, schedule: Q01DX009 (ip), vehicle: saline
  T/C: 99 % of control and 96 % of control
dose: 45.0 mg/kg/injection, schedule: Q04DX003 (ip), vehicle: saline
  T/C: 103 % of control
[1]
  T/C: 108 % of control
[2]
  T/C: 101 % of control and 103 % of control
dose: 90.0 mg/kg/injection, schedule: Q04DX003 (ip), vehicle: saline
  T/C: 61 % of control
[3]
  T/C: 98 % of control
dose: 180.0 mg/kg/injection, schedule: Q04DX003 (ip), vehicle: saline
  T/C: 40 % of control

## COc1ccc(/C=C/C(=O)c2ccccc2)cc1OC
[1]
  T/C: 103 % of control
[4]
  T/C: 114 % of control
[5]
  T/C: 100 % of control

## N#CSCc1ccc(Cl)cc1Cl
[1]
  T/C: 109 % of control
[4]
  T/C: 113 % of control
[5]
  T/C: 113 % of control

## O=C1CCC(c2ccccc2)=NN1
[2]
  T/C: 100 % of control
[3]
  T/C: 106 % of control
dose: 200.0 mg/kg/injection, schedule: Q01DX009 (ip), vehicle: saline
  T/C: 103 % of control
dose: 400.0 mg/kg/injection, schedule: Q01DX009 (ip), vehicle: saline
  T/C: 97 % of control

## CC1(C)SSCC1=O
dose: 50.0 mg/kg/injection, schedule: Q01DX005 (ip), vehicle: saline
  T/C: 104 % of control
dose: 100.0 mg/kg/injection, schedule: Q01DX005 (ip), vehicle: saline
  T/C: 109 % of control
dose: 200.0 mg/kg/injection, schedule: Q01DX005 (ip), vehicle: saline
  T/C: 108 % of control

## CNC(=S)N/N=C(\C=N\NC(=S)NC)c1ccc(C)cc1
dose: 50.0 mg/kg/injection, schedule: Q01DX009 (ip), vehicle: Klucel (hydroxypropylcellulose) (HPC)
  T/C: 98 % of control
[6]
  T/C: 98 % of control
[7]
  T/C: 90 % of control
[8]
  T/C: 90 % of control

## O=c1oc2c(c(N(c3ccccc3)c3ccccc3)c1Cl)CSc1ccccc1-2
[9]
  T/C: 90 % of control

## CN(CCC1(C)C(=O)CCc2ccccc21)Cc1ccccc1 (configuration not stated)
dose: 12.5 mg/kg/injection, schedule: Q01DX005 (ip), vehicle: saline with Tween-80
  T/C: 102 % of control
dose: 25.0 mg/kg/injection, schedule: Q01DX005 (ip), vehicle: saline with Tween-80
  T/C: 96 % of control
dose: 50.0 mg/kg/injection, schedule: Q01DX005 (ip), vehicle: saline with Tween-80
  T/C: 100 % of control and 96 % of control

## CCOC(=O)c1ccc(N)cc1
dose: 12.5 mg/kg/injection, schedule: Q01DX009 (ip), vehicle: distilled water + Tween-80
  T/C: 105 % of control
dose: 25.0 mg/kg/injection, schedule: Q01DX009 (ip), vehicle: distilled water + Tween-80
  T/C: 105 % of control
dose: 37.5 mg/kg/injection, schedule: Q01DX009 (ip), vehicle: saline with Tween-80
  T/C: 100 % of control
dose: 37.5 mg/kg/injection, schedule: Q04DX003 (ip), vehicle: saline with Tween-80
  T/C: 91 % of control
dose: 50.0 mg/kg/injection, schedule: Q01DX009 (ip), vehicle: distilled water + Tween-80
  T/C: 104 % of control
dose: 75.0 mg/kg/injection, schedule: Q01DX009 (ip), vehicle: saline with Tween-80
  T/C: 109 % of control
dose: 75.0 mg/kg/injection, schedule: Q04DX003 (ip), vehicle: saline with Tween-80
  T/C: 100 % of control
dose: 100.0 mg/kg/injection, schedule: Q01DX009 (ip), vehicle: distilled water + Tween-80
  T/C: 110 % of control
dose: 150.0 mg/kg/injection, schedule: Q01DX009 (ip), vehicle: saline with Tween-80
  T/C: 100 % of control
dose: 150.0 mg/kg/injection, schedule: Q04DX003 (ip), vehicle: saline with Tween-80
  T/C: 91 % of control
dose: 200.0 mg/kg/injection, schedule: Q01DX009 (ip), vehicle: distilled water + Tween-80
  T/C: 102 % of control

## Cc1ccc[n+](CCC(N)=O)c1
[10]
  T/C: 100 % of control
[11]
  T/C: 100 % of control
dose: 400.0 mg/kg/injection, schedule: Q04DX003 (ip), vehicle: saline
  T/C: 95 % of control

## CC1CC(C#N)=C(NC#N)NC1=O (configuration not stated)
dose: 7.5 mg/kg/injection, schedule: Q01DX005 (ip), vehicle: saline with Tween-80
  T/C: 108 % of control
dose: 7.5 mg/kg/injection, schedule: Q01DX005 (ip), vehicle: saline
  T/C: 101 % of control
dose: 15.0 mg/kg/injection, schedule: Q01DX005 (ip), vehicle: saline with Tween-80
  T/C: 111 % of control
dose: 15.0 mg/kg/injection, schedule: Q01DX005 (ip), vehicle: saline
  T/C: 106 % of control

## COc1cc2c(cc1OC)C(=O)c1nccc3ccc(OC)c(c13)O2
dose: 6.75 mg/kg/injection, schedule: Q01DX005 (ip), vehicle: Klucel (hydroxypropylcellulose) (HPC)
  T/C: 100 % of control
dose: 13.5 mg/kg/injection, schedule: Q01DX005 (ip), vehicle: Klucel (hydroxypropylcellulose) (HPC)
  T/C: 92 % of control
dose: 27.0 mg/kg/injection, schedule: Q01DX005 (ip), vehicle: Klucel (hydroxypropylcellulose) (HPC)
  T/C: 101 % of control
dose: 54.0 mg/kg/injection, schedule: Q01DX005 (ip), vehicle: Klucel (hydroxypropylcellulose) (HPC)
  T/C: 92 % of control

## Cc1ccc(S(=O)(=O)C[n+]2ccc3ccccc3c2)cc1
[9]
  T/C: 98 % of control
[10]
  T/C: 114 % of control and 118 % of control
dose: 200.0 mg/kg/injection, schedule: Q04DX003 (ip), vehicle: saline with Tween-80
  T/C: 105 % of control
[11]
  T/C: 117 % of control
dose: 400.0 mg/kg/injection, schedule: Q04DX003 (ip), vehicle: saline with Tween-80
  T/C: 100 % of control

## CO[C@H]1Nc2c(ccc(C)c2O)C(=O)N2C=C(/C=C/C(N)=O)C[C@@H]12
dose: 0.05 mg/kg/injection, schedule: Q04DX003 (ip), vehicle: DMSO
  T/C: 106 % of control
dose: 0.05 mg/kg/injection, schedule: Q04DX003 (ip), vehicle: saline
  T/C: 122 % of control
dose: 0.1 mg/kg/injection, schedule: Q04DX003 (ip), vehicle: DMSO
  T/C: 112 % of control
dose: 0.13 mg/kg/injection, schedule: Q04DX003 (ip), vehicle: saline + alcohol
  T/C: 152 % of control
dose: 0.2 mg/kg/injection, schedule: Q04DX003 (ip), vehicle: DMSO
  T/C: 118 % of control
dose: 0.2 mg/kg/injection, schedule: Q04DX003 (ip), vehicle: saline
  T/C: 122 % of control
dose: 0.22 mg/kg/injection, schedule: Q04DX003 (ip), vehicle: saline + alcohol
  T/C: 153 % of control and 161 % of control (2×)
dose: 0.4 mg/kg/injection, schedule: Q04DX003 (ip), vehicle: saline
  T/C: 155 % of control
dose: 0.6 mg/kg/injection, schedule: Q04DX003 (ip), vehicle: saline + alcohol
  T/C: 185 % of control
dose: 0.8 mg/kg/injection, schedule: Q04DX003 (ip), vehicle: saline
  T/C: 110 % of control
dose: 200.0 micrograms/kg/injection, schedule: Q01DX009 (ip), vehicle: saline
  T/C: 150 % of control
dose: 200.0 micrograms/kg/injection, schedule: Q04DX003 (ip), vehicle: saline with Tween-80
  T/C: 165 % of control

## NC(=O)c1c(-c2ccccc2)nc2sccn12
dose: 100.0 mg/kg/injection, schedule: Q01DX001 (ip), vehicle: Klucel (hydroxypropylcellulose) (HPC)
  T/C: 98 % of control
dose: 200.0 mg/kg/injection, schedule: Q01DX001 (ip), vehicle: Klucel (hydroxypropylcellulose) (HPC)
  T/C: 90 % of control
dose: 400.0 mg/kg/injection, schedule: Q01DX001 (ip), vehicle: Klucel (hydroxypropylcellulose) (HPC)
  T/C: 92 % of control

## Cc1ccnc2cc(N(C)C)ccc12
dose: 7.5 mg/kg/injection, schedule: Q01DX005 (ip), vehicle: Klucel (hydroxypropylcellulose) (HPC)
  T/C: 101 % of control
dose: 15.0 mg/kg/injection, schedule: Q01DX005 (ip), vehicle: Klucel (hydroxypropylcellulose) (HPC)
  T/C: 98 % of control
dose: 30.0 mg/kg/injection, schedule: Q01DX005 (ip), vehicle: Klucel (hydroxypropylcellulose) (HPC)
  T/C: 99 % of control
dose: 60.0 mg/kg/injection, schedule: Q01DX005 (ip), vehicle: Klucel (hydroxypropylcellulose) (HPC)
  T/C: 92 % of control

## CCOC(=O)COc1cc2c(cc1C(C)c1ccc(OC)c(OC)c1)OCO2 (configuration not stated)
dose: 50.0 mg/kg/injection, schedule: Q01DX005 (ip), vehicle: distilled water + Tween-80
  T/C: 90 % of control
dose: 100.0 mg/kg/injection, schedule: Q01DX005 (ip), vehicle: distilled water + Tween-80
  T/C: 91 % of control
dose: 200.0 mg/kg/injection, schedule: Q01DX005 (ip), vehicle: distilled water + Tween-80
  T/C: 86 % of control

## O=[N+]([O-])c1ccc(N/N=C/c2ccnc3ccccc23)cc1
[6]
  T/C: 95 % of control
[7]
  T/C: 86 % of control
[8]
  T/C: 95 % of control
